From patent US20240158446A1, “CYCLIC COMPOUND HAVING SELECTIVE INHIBITORY ACTION ON KRAS OVER HRAS AND NRAS” (CHUGAI SEIYAKU KABUSHIKI KAISHA, priority 2021, published 2024)

Experiments:
[1] = target: GDP-bound KRAS wild-type protein (Homo sapiens, UniProt P01116); experiment: Binding to KRAS by surface plasmon resonance (SPR), Single Cycle Kinetics; settings: SPR, Single Cycle Kinetics, GDP-bound KRAS wild-type protein; read-out: KRAS KD
[2] = target: GDP-bound NRAS wild-type protein (Homo sapiens, UniProt P01111); experiment: Binding to NRAS by surface plasmon resonance (SPR), Single Cycle Kinetics; settings: SPR, GDP-bound NRAS wild-type protein vs GDP-bound KRAS wild-type protein
[3] = target: GDP-bound HRAS wild-type protein (Homo sapiens, UniProt P01112); experiment: Binding to HRAS by surface plasmon resonance (SPR), Single Cycle Kinetics; settings: SPR, GDP-bound HRAS wild-type protein vs GDP-bound KRAS wild-type protein
[4] = system: human lung cancer strain NCI-H441;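 note: cell proliferation inhibition after four days measured by CellTiter-Glo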

GDP-bound NRAS wild-type protein, sequence (P01111 whole entry): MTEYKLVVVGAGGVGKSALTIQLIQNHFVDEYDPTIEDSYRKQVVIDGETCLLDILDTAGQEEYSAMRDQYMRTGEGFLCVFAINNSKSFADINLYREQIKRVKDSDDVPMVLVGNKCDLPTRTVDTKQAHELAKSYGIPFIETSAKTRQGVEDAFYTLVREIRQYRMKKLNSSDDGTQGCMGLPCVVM
GDP-bound HRAS wild-type protein, sequence (P01112 whole entry): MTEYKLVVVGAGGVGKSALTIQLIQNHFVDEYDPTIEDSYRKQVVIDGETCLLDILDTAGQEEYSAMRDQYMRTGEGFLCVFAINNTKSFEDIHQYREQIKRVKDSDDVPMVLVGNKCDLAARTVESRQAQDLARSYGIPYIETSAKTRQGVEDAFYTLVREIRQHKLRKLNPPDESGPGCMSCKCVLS
GDP-bound KRAS wild-type protein, sequence (P01116 whole entry): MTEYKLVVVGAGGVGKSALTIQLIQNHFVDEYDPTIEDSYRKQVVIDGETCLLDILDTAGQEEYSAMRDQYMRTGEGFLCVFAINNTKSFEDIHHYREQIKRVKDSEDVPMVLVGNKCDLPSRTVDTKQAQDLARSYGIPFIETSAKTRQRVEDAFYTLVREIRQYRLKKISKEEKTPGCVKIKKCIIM

Compound	Kd [1] [nM]	IC50 [4] [nM]	NRAS/KRAS (ratio of KD value for NRAS to KD value for KRAS) [2]	HRAS/KRAS (ratio of KD value for HRAS to KD value for KRAS) [3]
CCO[C@@H]1C[C@H]2C(=O)NC3(CCC3)C(=O)N(C)[C@@H](C3CCCC3)C(=O)N(C)[C@H](C(=O)N3CCOCC3)CC(=O)N(C)[C@@H](C)C(=O)N[C@@H]([C@@H](C)CC)C(=O)N(C)CC(=O)N(C)[C@H]3CCCCCN(C3=O)[C@@H](Cc3ccc(F)cc3)C(=O)N(C)CC(=O)N[C@@H](CCc3cc(F)c(C(F)(F)F)c(F)c3)C(=O)N2C1 [PP1175]	0.16	23.5	B (a compound having 3 or more and less than 10 is denoted as B)	B (a compound having 3 or more and less than 10 is denoted as B)
CCO[C@@H]1C[C@H]2C(=O)NC3(CCC3)C(=O)N(C)[C@@H](C3CCCC3)C(=O)N(C)[C@H](C(=O)N3CCOCC3)CC(=O)N(C)[C@@H](CC)C(=O)N[C@@H]([C@@H](C)CC)C(=O)N(C)CC(=O)N(C)[C@H]3CCCCCN(C3=O)[C@@H](Cc3ccc(F)cc3)C(=O)N(C)CC(=O)N[C@@H](CCc3cc(F)c(C(F)(F)F)c(F)c3)C(=O)N2C1 [PP1176]	0.13	50	B (a compound having 3 or more and less than 10 is denoted as B)	B (a compound having 3 or more and less than 10 is denoted as B)
CCO[C@@H]1C[C@H]2C(=O)NC3(CCC3)C(=O)N(C)[C@@H](C3CCCC3)C(=O)N(C)[C@H](C(=O)N3CCOCC3)CC(=O)N(C)[C@@H](CC3CC3)C(=O)N[C@@H]([C@@H](C)CC)C(=O)N(C)CC(=O)N(C)[C@H]3CCCCCN(C3=O)[C@@H](Cc3ccc(F)cc3)C(=O)N(C)CC(=O)N[C@@H](CCc3cc(F)c(C(F)(F)F)c(F)c3)C(=O)N2C1 [PP1178]	0.16	26.3	B (a compound having 3 or more and less than 10 is denoted as B)	B (a compound having 3 or more and less than 10 is denoted as B)
CCO[C@@H]1C[C@H]2C(=O)NC3(CCC3)C(=O)N(C)[C@@H](C3CCCC3)C(=O)N(C)[C@H](C(=O)N3CCOCC3)CC(=O)N(C)[C@@H](Cc3cccs3)C(=O)N[C@@H]([C@@H](C)CC)C(=O)N(C)CC(=O)N(C)[C@H]3CCCCCN(C3=O)[C@@H](Cc3ccc(F)cc3)C(=O)N(C)CC(=O)N[C@@H](CCc3cc(F)c(C(F)(F)F)c(F)c3)C(=O)N2C1 [PP1183]	0.26	27.8	B (a compound having 3 or more and less than 10 is denoted as B)	B (a compound having 3 or more and less than 10 is denoted as B)
CCO[C@@H]1C[C@H]2C(=O)NC3(CCC3)C(=O)N(C)[C@@H](C3CCCC3)C(=O)N(C)[C@H](C(=O)N3CCOCC3)CC(=O)N(C)[C@@H](Cc3ccsc3)C(=O)N[C@@H]([C@@H](C)CC)C(=O)N(C)CC(=O)N(C)[C@H]3CCCCCN(C3=O)[C@@H](Cc3ccc(F)cc3)C(=O)N(C)CC(=O)N[C@@H](CCc3cc(F)c(C(F)(F)F)c(F)c3)C(=O)N2C1 [PP1184]	0.16	91.9	B (a compound having 3 or more and less than 10 is denoted as B)	B (a compound having 3 or more and less than 10 is denoted as B)
CCO[C@@H]1C[C@H]2C(=O)NC3(CCC3)C(=O)N(C)[C@@H](C3CCCC3)C(=O)N(C)[C@H](C(=O)N3CCOCC3)CC(=O)N(C)[C@@H](Cc3ccccc3C#N)C(=O)N[C@@H]([C@@H](C)CC)C(=O)N(C)CC(=O)N(C)[C@H]3CCCCCN(C3=O)[C@@H](Cc3ccc(F)cc3)C(=O)N(C)CC(=O)N[C@@H](CCc3cc(F)c(C(F)(F)F)c(F)c3)C(=O)N2C1 [PP1185]	0.5	175	B (a compound having 3 or more and less than 10 is denoted as B)	B (a compound having 3 or more and less than 10 is denoted as B)
CCO[C@@H]1C[C@H]2C(=O)NC3(CCC3)C(=O)N(C)[C@@H](C3CCCC3)C(=O)N(C)[C@H](C(=O)N3CCOCC3)CC(=O)N(C)[C@@H](Cc3cccc(C#N)c3)C(=O)N[C@@H]([C@@H](C)CC)C(=O)N(C)CC(=O)N(C)[C@H]3CCCCCN(C3=O)[C@@H](Cc3ccc(F)cc3)C(=O)N(C)CC(=O)N[C@@H](CCc3cc(F)c(C(F)(F)F)c(F)c3)C(=O)N2C1 [PP1186]	0.094	54.4	B (a compound having 3 or more and less than 10 is denoted as B)	B (a compound having 3 or more and less than 10 is denoted as B)
CCO[C@@H]1C[C@H]2C(=O)NC3(CCC3)C(=O)N(C)[C@@H](C3CCCC3)C(=O)N(C)[C@H](C(=O)N3CCOCC3)CC(=O)N(C)[C@@H](Cc3ccc(Cl)c(Cl)c3)C(=O)N[C@@H]([C@@H](C)CC)C(=O)N(C)CC(=O)N(C)[C@H]3CCCCCN(C3=O)[C@@H](Cc3ccc(F)cc3)C(=O)N(C)CC(=O)N[C@@H](CCc3cc(F)c(C(F)(F)F)c(F)c3)C(=O)N2C1 [PP1188]	0.43	33.5	B (a compound having 3 or more and less than 10 is denoted as B)	B (a compound having 3 or more and less than 10 is denoted as B)
CCO[C@@H]1C[C@H]2C(=O)NC3(CCC3)C(=O)N(C)[C@@H](C3CCCC3)C(=O)N(C)[C@H](C(=O)N(C)C)CC(=O)N(C)[C@@H](CC(F)F)C(=O)N[C@@H]([C@@H](C)CC)C(=O)N(C)CC(=O)N(C)[C@H]3CCCCCN(C3=O)[C@@H](Cc3ccc(F)cc3)C(=O)N(C)CC(=O)N[C@@H](CCc3cc(F)c(C(F)(F)F)c(F)c3)C(=O)N2C1 [PP1191]	0.056	13	A (a compound having 10 or more and less than 20 is denoted as A)	B (a compound having 3 or more and less than 10 is denoted as B)

The next lines start with results.

Kd [1] [nM]	IC50 [4] [nM]	Compound	NRAS/KRAS (ratio of KD value for NRAS to KD value for KRAS) [2]	HRAS/KRAS (ratio of KD value for HRAS to KD value for KRAS) [3]
0.081	32.5	CCO[C@@H]1C[C@H]2C(=O)NC3(CCC3)C(=O)N(C)[C@@H](C3CCCC3)C(=O)N(C)[C@H](C(=O)N3CCOCC3)CC(=O)N(C)[C@@H](CC(F)F)C(=O)N[C@@H]([C@@H](C)CC)C(=O)N(C)CC(=O)N(C)[C@H]3CCCCCN(C3=O)[C@@H](Cc3ccc(F)cc3)C(=O)N(C)CC(=O)N[C@@H](CCc3cc(F)c(C(F)(F)F)c(F)c3)C(=O)N2C1 [PP1177]	B (a compound having 3 or more and less than 10 is denoted as B)	B (a compound having 3 or more and less than 10 is denoted as B)
0.091	56.9	CCO[C@@H]1C[C@H]2C(=O)NC3(CCC3)C(=O)N(C)[C@@H](C3CCCC3)C(=O)N(C)[C@H](C(=O)N3CCOCC3)CC(=O)N(C)[C@@H](COC)C(=O)N[C@@H]([C@@H](C)CC)C(=O)N(C)CC(=O)N(C)[C@H]3CCCCCN(C3=O)[C@@H](Cc3ccc(F)cc3)C(=O)N(C)CC(=O)N[C@@H](CCc3cc(F)c(C(F)(F)F)c(F)c3)C(=O)N2C1 [PP1179]	B (a compound having 3 or more and less than 10 is denoted as B)	B (a compound having 3 or more and less than 10 is denoted as B)
0.17	46.9	CCO[C@@H]1C[C@H]2C(=O)NC3(CCC3)C(=O)N(C)[C@@H](C3CCCC3)C(=O)N(C)[C@H](C(=O)N3CCOCC3)CC(=O)N(C)[C@@H](CCOC)C(=O)N[C@@H]([C@@H](C)CC)C(=O)N(C)CC(=O)N(C)[C@H]3CCCCCN(C3=O)[C@@H](Cc3ccc(F)cc3)C(=O)N(C)CC(=O)N[C@@H](CCc3cc(F)c(C(F)(F)F)c(F)c3)C(=O)N2C1 [PP1180]	B (a compound having 3 or more and less than 10 is denoted as B)	B (a compound having 3 or more and less than 10 is denoted as B)
0.12	52.3	CCO[C@@H]1C[C@H]2C(=O)NC3(CCC3)C(=O)N(C)[C@@H](C3CCCC3)C(=O)N(C)[C@H](C(=O)N3CCOCC3)CC(=O)N(C)[C@@H](Cc3ccc(C#N)cc3)C(=O)N[C@@H]([C@@H](C)CC)C(=O)N(C)CC(=O)N(C)[C@H]3CCCCCN(C3=O)[C@@H](Cc3ccc(F)cc3)C(=O)N(C)CC(=O)N[C@@H](CCc3cc(F)c(C(F)(F)F)c(F)c3)C(=O)N2C1 [PP1187]	B (a compound having 3 or more and less than 10 is denoted as B)	B (a compound having 3 or more and less than 10 is denoted as B)
0.066	16.1	CCO[C@@H]1C[C@H]2C(=O)NC3(CCC3)C(=O)N(C)[C@@H](C3CCCC3)C(=O)N(C)[C@H](C(=O)N(C)C)CC(=O)N(C)[C@@H](C)C(=O)N[C@@H]([C@@H](C)CC)C(=O)N(C)CC(=O)N(C)[C@H]3CCCCCN(C3=O)[C@@H](Cc3ccc(F)cc3)C(=O)N(C)CC(=O)N[C@@H](CCc3cc(F)c(C(F)(F)F)c(F)c3)C(=O)N2C1 [PP1189]	B (a compound having 3 or more and less than 10 is denoted as B)	B (a compound having 3 or more and less than 10 is denoted as B)
0.092	15.5	CCO[C@@H]1C[C@H]2C(=O)NC3(CCC3)C(=O)N(C)[C@@H](C3CCCC3)C(=O)N(C)[C@H](C(=O)N(C)C)CC(=O)N(C)[C@@H](CC)C(=O)N[C@@H]([C@@H](C)CC)C(=O)N(C)CC(=O)N(C)[C@H]3CCCCCN(C3=O)[C@@H](Cc3ccc(F)cc3)C(=O)N(C)CC(=O)N[C@@H](CCc3cc(F)c(C(F)(F)F)c(F)c3)C(=O)N2C1 [PP1190]	B (a compound having 3 or more and less than 10 is denoted as B)	B (a compound having 3 or more and less than 10 is denoted as B)
